Columns and labels:
Type in all cases: functional
PC-3 [1] = test: Growth inhibition of human PC3 cells assessed as cell growth at 10^-8 M by sulforhodamine B assay; conditions: read-out: Activity
HCT-15 [2] = test: Growth inhibition of human HCT15 cells assessed as cell growth at 10^-8 M by sulforhodamine B assay; conditions: read-out: Activity
KM12 [3] = test: Growth inhibition of human KM12 cells assessed as cell growth at 10^-4 M by sulforhodamine B assay; conditions: read-out: Activity
A549 [4] = test: Growth inhibition of human A549/ATCC cells assessed as cell growth at 10^-7 M by sulforhodamine B assay; conditions: read-out: Activity
SR = test: Growth inhibition of human SR cells by sulforhodamine B assay
UACC-62 = test: Growth inhibition of human UACC62 cells assessed as cell growth at 10^-6 M by sulforhodamine B assay; conditions: read-out: Activity
OVCAR-8 [5] = test: Growth inhibition of human OVCAR8 cells by sulforhodamine B assay
NCI-H460 = test: Growth inhibition of human NCI-H460 cells assessed as cell growth at 10^-7 M by sulforhodamine B assay; conditions: read-out: Activity
NCI-H322M = test: Growth inhibition of human NCI-H322M cells assessed as cell growth at 10^-4 M by sulforhodamine B assay; conditions: read-out: Activity
MDA-MB-468 = test: Growth inhibition of human MDA-MB-468 cells assessed as cell growth at 10^-4 M by sulforhodamine B assay; conditions: read-out: Activity
SF-295 = test: Growth inhibition of human SF295 cells assessed as cell growth at 10^-6 M by sulforhodamine B assay; conditions: read-out: Activity
MDA-MB-435 = test: Growth inhibition of human MDA-MB-435 cells by sulforhodamine B assay
SNB-19 = test: Growth inhibition of human SNB19 cells assessed as cell growth at 10^-4 M by sulforhodamine B assay; conditions: read-out: Activity
MCF7 [6] = test: Growth inhibition of human MCF7 cells assessed as cell growth at 10^-4 M by sulforhodamine B assay; conditions: read-out: Activity
COLO 205 [7] = test: Growth inhibition of human COLO205 cells assessed as cell growth at 10^-7 M by sulforhodamine B assay; conditions: read-out: Activity
MCF7 [8] = test: Growth inhibition of human MCF7 cells assessed as cell growth at 10^-8 M by sulforhodamine B assay; conditions: read-out: Activity
KM12 [9] = test: Growth inhibition of human KM12 cells assessed as cell growth at 10^-6 M by sulforhodamine B assay; conditions: read-out: Activity
HOP-92 [10] = test: Growth inhibition of human HOP92 cells assessed as cell growth at 10^-6 M by sulforhodamine B assay; conditions: read-out: Activity
SW-620 = test: Growth inhibition of human SW620 cells assessed as cell growth at 10^-4 M by sulforhodamine B assay; conditions: read-out: Activity
HCT-116 = test: Growth inhibition of human HCT116 cells assessed as cell growth at 10^-7 M by sulforhodamine B assay; conditions: read-out: Activity
HT-29 = test: Growth inhibition of human HT-29 cells assessed as cell growth at 10^-8 M by sulforhodamine B assay; conditions: read-out: Activity
OVCAR-8 [11] = test: Growth inhibition of human OVCAR8 cells assessed as cell growth at 10^-6 M by sulforhodamine B assay; conditions: read-out: Activity
NCI-H226 = test: Growth inhibition of human NCI-H226 cells assessed as cell growth at 10^-6 M by sulforhodamine B assay; conditions: read-out: Activity
SK-MEL-28 = test: Growth inhibition of human SK-MEL-28 cells assessed as cell growth at 10^-6 M by sulforhodamine B assay; conditions: read-out: Activity
UACC-257 [12] = test: Growth inhibition of human UACC257 cells assessed as cell growth at 10^-6 M by sulforhodamine B assay; conditions: read-out: Activity
[13] = Growth inhibition of human NCI-ADR-RES cells by sulforhodamine B assay
IGROV-1 = test: Growth inhibition of human IGROV1 cells assessed as cell growth at 10^-8 M by sulforhodamine B assay; conditions: read-out: Activity
SN12C [14] = test: Growth inhibition of human SN12C cells assessed as cell growth at 10^-4 M by sulforhodamine B assay; conditions: read-out: Activity
TK-10 = test: Growth inhibition of human TK10 cells assessed as cell growth at 10^-7 M by sulforhodamine B assay; conditions: read-out: Activity
SNB-75 = test: Growth inhibition of human SNB75 cells assessed as cell growth at 10^-4 M by sulforhodamine B assay; conditions: read-out: Activity
HOP-92 [15] = test: Growth inhibition of human HOP92 cells assessed as cell growth at 10^-4 M by sulforhodamine B assay; conditions: read-out: Activity
K562 = test: Growth inhibition of human K562 cells assessed as cell growth at 10^-6 M by sulforhodamine B assay; conditions: read-out: Activity
SN12C [16] = test: Growth inhibition of human SN12C cells assessed as cell growth at 10^-8 M by sulforhodamine B assay; conditions: read-out: Activity
ACHN [17] = test: Growth inhibition of human ACHN cells assessed as cell growth at 10^-7 M by sulforhodamine B assay; conditions: read-out: Activity
PC-3 [18] = test: Growth inhibition of human PC3 cells assessed as cell growth at 10^-6 M by sulforhodamine B assay; conditions: read-out: Activity
COLO 205 [19] = test: Growth inhibition of human COLO205 cells by sulforhodamine B assay
ACHN [20] = test: Growth inhibition of human ACHN cells assessed as cell growth at 10^-6 M by sulforhodamine B assay; conditions: read-out: Activity
HCT-15 [21] = test: Growth inhibition of human HCT15 cells assessed as cell growth at 10^-7 M by sulforhodamine B assay; conditions: read-out: Activity
SN12C [22] = test: Growth inhibition of human SN12C cells assessed as cell growth at 10^-7 M by sulforhodamine B assay; conditions: read-out: Activity
A549 [23] = test: Growth inhibition of human A549/ATCC cells assessed as cell growth at 10^-8 M by sulforhodamine B assay; conditions: read-out: Activity
CAKI-1 = test: Growth inhibition of human CAKI-1 cells assessed as cell growth at 10^-4 M by sulforhodamine B assay; conditions: read-out: Activity
UACC-257 [24] = test: Growth inhibition of human UACC257 cells by sulforhodamine B assay
SF-268 = test: Growth inhibition of human SF268 cells assessed as cell growth at 10^-7 M by sulforhodamine B assay; conditions: read-out: Activity
[25] = read-out: LC50 (the source's name)
[26] = read-out: pLC50 (the source's name) (converted)

For `CC1(C)C[C@@H](O)[C@]2(C(=O)O)CC[C@]3(C)C(=CC[C@@H]4[C@@]5(C)C/C(=C\C=C\c6ccccc6)C(=O)C(C)(C)[C@@H]5CC[C@]43C)[C@@H]2C1`, the growth at 0.01 µM (PC-3 [1]) was 97%, the growth at 0.01 µM (HCT-15 [2]) was 97% and the growth at 100 µM (KM12 [3]) was -76%. For the same molecule, the growth at 0.1 µM (A549 [4]) was 95%, the GI50 (SR; read-out: GI50) was 2.48 µM and the CC50 (SR; [25]) was > 100 µM. The TGI (SR; read-out: TGI) was 6.91 µM, the GI50 (SR; read-out: pGI50 (converted)) was 2.45 µM and the CC50 (SR; [26]) was > 100 µM. For the same molecule, the TGI (SR; read-out: pTGI (converted)) was 6.92 µM, the growth at 1 µM (UACC-62) was 88% and the GI50 (OVCAR-8 [5]; read-out: GI50) was 3.41 µM. The CC50 (OVCAR-8 [5]; [25]) was 60.8 µM, the TGI (OVCAR-8 [5]; read-out: TGI) was 14.2 µM and the GI50 (OVCAR-8 [5]; read-out: pGI50 (converted)) was 3.39 µM. The CC50 (OVCAR-8 [5]; [26]) was 60.3 µM, the TGI (OVCAR-8 [5]; read-out: pTGI (converted)) was 14.1 µM and the growth at 0.1 µM (NCI-H460) was 101%. For the same molecule, the growth at 100 µM (NCI-H322M) was -78%, the growth at 100 µM (MDA-MB-468) was -95% and the growth at 1 µM (SF-295) was 88%. For the same molecule, the GI50 (MDA-MB-435; read-out: GI50) was 3.28 µM, the CC50 (MDA-MB-435; [25]) was > 100 µM and the TGI (MDA-MB-435; read-out: TGI) was 14.4 µM. For the same molecule, the GI50 (MDA-MB-435; read-out: pGI50 (converted)) was 3.31 µM, the CC50 (MDA-MB-435; [26]) was > 100 µM and the TGI (MDA-MB-435; read-out: pTGI (converted)) was 14.5 µM. For the same molecule, the growth at 100 µM (SNB-19) was -91%, the growth at 100 µM (MCF7 [6]) was -68% and the growth at 0.1 µM (COLO 205 [7]) was 100%. It also gave a growth at 0.01 µM (MCF7 [8]) of 95%, a growth at 1 µM (KM12 [9]) of 92% and a growth at 1 µM (HOP-92 [10]) of 76%. It also gave a growth at 100 µM (SW-620) of -57%, a growth at 0.1 µM (HCT-116) of 99% and a growth at 0.01 µM (HT-29) of 104%. For the same molecule, the growth at 1 µM (OVCAR-8 [11]) was 93%, the growth at 1 µM (NCI-H226) was 83% and the growth at 1 µM (SK-MEL-28) was 97%. The growth at 1 µM (UACC-257 [12]) was 89%, the GI50 ([13]; read-out: GI50) was 3.29 µM and the CC50 [13, 25] was 43.2 µM. It also gave a TGI ([13]; read-out: TGI) of 14.1 µM, a GI50 ([13]; read-out: pGI50 (converted)) of 3.31 µM and a CC50 [13, 26] of 43.7 µM. It also gave a TGI ([13]; read-out: pTGI (converted)) of 14.1 µM, a growth at 0.01 µM (IGROV-1) of 107% and a growth at 100 µM (SN12C [14]) of -92%. The growth at 0.1 µM (TK-10) was 93%, the growth at 100 µM (SNB-75) was -70% and the growth at 100 µM (HOP-92 [15]) was -76%. The growth at 1 µM (K562) was 98%, the growth at 0.01 µM (SN12C [16]) was 98% and the growth at 0.1 µM (ACHN [17]) was 98%. For the same molecule, the growth at 1 µM (PC-3 [18]) was 80%, the GI50 (COLO 205 [19]; read-out: GI50) was 1.97 µM and the LC50 (COLO 205 [19]; read-out: LC50) was 6.36 µM. It also gave a TGI (COLO 205 [19]; read-out: TGI) of 3.54 µM, a GI50 (COLO 205 [19]; read-out: pGI50 (converted)) of 2 µM and an LC50 (COLO 205 [19]; read-out: pLC50 (converted)) of 6.31 µM. For the same molecule, the TGI (COLO 205 [19]; read-out: pTGI (converted)) was 3.55 µM, the growth at 1 µM (ACHN [20]) was 97% and the growth at 0.1 µM (HCT-15 [21]) was 96%. It also gave a growth at 0.1 µM (SN12C [22]) of 98%, a growth at 0.01 µM (A549 [23]) of 98% and a growth at 100 µM (CAKI-1) of -49%. For the same molecule, the GI50 (UACC-257 [24]; read-out: GI50) was 2.62 µM, the CC50 (UACC-257 [24]; [25]) was 35.1 µM and the TGI (UACC-257 [24]; read-out: TGI) was 9.01 µM. For the same molecule, the GI50 (UACC-257 [24]; read-out: pGI50 (converted)) was 2.63 µM, the CC50 (UACC-257 [24]; [26]) was 35.5 µM and the TGI (UACC-257 [24]; read-out: pTGI (converted)) was 8.91 µM. For the same molecule, the growth at 0.1 µM (SF-268) was 91%.

— ChEMBL document CHEMBL2413072, “Synthesis and in vitro anticancer studies of novel C-2 arylidene congeners of lantadenes” (2013)
